Measurements as given in publication PMC7947795, “Rapamycin-Loaded Lipid Nanocapsules Induce Selective Inhibition of the mTORC1-Signaling Pathway in Glioblastoma Cells” (Frontiers in Bioengineering and Biotechnology, 2021).

Key:
[1] = tested on: phosphorylation of Akt on Ser473; assay: Western blot Akt-p; format: cell-based, Human; conditions: U87MG, 1 μM, 21 and 0.4% O2, 0Gy
Description: (§1) U87MG cells (2.4 × 10^5 cells/mL) harvested in the exponential growth phase were seeded in dishes in DMEM medium with 10% FBS, at 37°C in humidified atmosphere containing 5% CO2 and 21 or 0.4% O2. Once the cells incubated in the exponential growth phase, serum-contained medium was removed and replaced by serum-deprived DMEM supplemented with 1% N1 supplement. […] 8Gy radiation was performed 6 h after the treatment by Faxitron CP-160 (cf. section Irradiation Procedure).
(§2) Cells were scrapped and lysed by sonication for 10 s.
(§3) Equal amounts of protein from each sample, estimated by the Bio-Rad Protein Assay (Richmond, CA), were separated by electrophoresis through a 4–20% SDS-polyacrylamide gel (Mini-protean® TGX™ Ge, BioRad), transferred to PVDF membranes (AmershamHybond, GE Healthcare, Buckinghamshire, UK) and blocked with 4% non-fat dry milk in 1X TBS plus 0.1% Tween 20 at RT for 1 h. The membranes were washed and incubated with a primary antibody diluted in 2% BSA in 1X TBS plus 0.1% Tween 20 overnight at 4°C. The membranes were then washed and incubated again for 1 h at RT with peroxidase-conjugated anti-rabbit or anti-mouse secondary antibody. The bound antibody was detected using the enhanced chemiluminescence reagent kit SuperSignal West Femto (Thermo Scientific, Waltham, MA, USA) and read with a bioluminescence detector Image Quant Las 4000 (GE Healthcare, USA).

[2] = Spectral analysis of rapamycin stability in Labrafac; format: physicochemical; conditions: short cycles of heating and cooling at 70°C
Description: Spectral analysis was then made by use of the CLARIOstar microplate reader (BMG Labtech, Champigny-sur-Marne, France).

[3] = tested on: mTOR phosphorylation (Ser2448); assay: Western blot p-mTOR/HSC70; format: cell-based, Human; conditions: U87MG, 1 μM, serum-free medium, 21 and 0.4% O2, 16 h
[4] = no reference given; cited from earlier work
[5] = Rapamycin solubility assay in oils (RP-HPLC); format: physicochemical
Description: […] […] The mixture of 90% acetonitrile and 10% water (v/v) was used as a mobile phase, and delivered at a flow rate of 2.0 mL/min. The injection volume was 10 μL and the retention time was about 2.3 min.

[6] = tested on: HIF-1α protein expression; assay: Western blot HIF-1α; format: cell-based, Human; conditions: U87MG, 1 μM, 21 and 0.4% O2, 0Gy
Description: as §1, §2, §3

U87MG cells [7] = assay: Clonogenic assay by crystal violet coloration; format: cell-based, Human; conditions: 1 μM
Description: Irradiation was performed with the CP-160 cabinet x-ray system (Faxitron, Edimex, Le Plessis Grammoire, Angers, France) which delivers a dose of 1,5 grays by min. […] Irradiation was performed with cells covered.
Once the cells incubated in the exponential growth phase, serum-contained medium was removed and replaced by serum-deprived DMEM supplemented with 1 % N1 supplement. […] 8Gy radiation was performed 6 h after the treatment by Faxitron CP-160.

[8] = tested on: 9L cells (rat glioma cells); set-up: method as in Tyler et al., 2011; conditions: in vitro, ref Tyler et al., 2011; cited from earlier work
U87MG cells [9] = assay: MTS cytotoxicity assay; format: cell-based; conditions: Homo sapiens, U-87 MG, serum-free medium, 4 h treatment, read at 48 h
Description: Two assays were performed to determine the cytotoxicity effect of LNC-rapa on the glioblastoma cell line U87MG:MTS (3-(4,5-dimethylthiazol-2-yl)-5-(3-carboxymethoxyphenyl)-2-(4-sulfophenyl)-2H-tetrazolium) (Promega, Charbonnières, France) and clonogenic assay by crystal violet coloration (Sigma-Aldrich).
For the MTS assay, U87MG cells (5 × 10^4 cells/mL) harvested in the exponential growth phase were seeded in a 24-well plate in DMEM medium with 10% FBS, in humidified atmosphere (5% CO2) at 37°C. Once the cells incubated in the exponential growth phase, serum-contained medium was removed and replaced by serum-deprived DMEM supplemented with 1% N1 supplement (Sigma-Aldrich). […] 8Gy radiation was performed 6 h after the onset of initial treatment by Faxitron CP-160 (Faxitron X-rays, Lincolnshire, UK). Medium was changed every day. Forty-eight hours following the treatment, MTS reagent was diluted (1:5) in U87MG cell medium and incubated for 2 h at 37°C. The absorbance was measured at 492 nm using Multiskan® microplate spectrophotometer (Thermo Scientific).
Depending on the condition considered, the cells were placed throughout the experiment in a conventional 21% O2 incubator at 37°C/5% CO2 (normoxia) or 0.4% O2 (hypoxia) at 37°C/5% CO2 in an InVivO2 400 SCI-tive hypoxia workstation (Ruskinn); they are only placed in isolated flasks for the duration of the irradiations.

Stability of rapamycin in Labrafac [2]: confirmed
Degradation at 90°C in oil ([5]; 90°C, 3 h, whatever the oil used): completely degraded
Dissolution rate ([5]; Captex 8000, 90°C): 0%
Dissolved rapamycin ([5]; Captex 8000, 90°C, initial 16.8 mg/mL): 0 mg/mL
Dissolution rate ([5]; Captex 8000, RT): 9.5%
Dissolved rapamycin ([5]; Captex 8000, RT, initial 19.0 mg/mL): 1.8 mg/mL
Dissolution rate ([5]; Labrafac, 90°C): 0%
Dissolved rapamycin ([5]; Labrafac, 90°C, initial 21.1 mg/mL): 0 mg/mL
Dissolution rate ([5]; Labrafac, RT): 6.3%
Dissolved rapamycin ([5]; Labrafac, RT, initial 24.0 mg/mL): 1.5 mg/mL
Dissolution rate ([5]; Miglyol 812, 90°C): 0%
Dissolved rapamycin ([5]; Miglyol 812, 90°C, initial 17.1 mg/mL): 0 mg/mL
Dissolution rate ([5]; Miglyol 812, RT): 7.3%
Dissolved rapamycin ([5]; Miglyol 812, RT, initial 19.2 mg/mL): 1.4 mg/mL
Compound: CO[C@H]1C[C@@H]2CC[C@@H](C)[C@@](O)(O2)C(=O)C(=O)N2CCCC[C@H]2C(=O)O[C@H]([C@H](C)C[C@@H]2CC[C@@H](O)[C@H](OC)C2)CC(=O)[C@H](C)/C=C(\C)[C@@H](O)[C@@H](OC)C(=O)[C@H](C)C[C@H](C)/C=C/C=C/C=C/1C [Rapamycin]
Akt-p protein level (Ser473) [1]: enhance Akt-p protein level
Inhibition of mTOR phosphorylation (Ser2448) [3]: strong inhibition of mTOR phosphorylation
logP [4]: 4.3
HIF-1α protein expression [6]: reduced
Synergistic effect with radiation treatment (clonogenic assay) (U87MG cells [7]; 8Gy 6 h after treatment, 21 or 0.4% O2): do not exert any synergistic effect
Effect on cell survival (clonogenic assay) (U87MG cells [7]; 21 or 0.4% O2, 10 days, significant at 0.4% O2): only moderate effects
concentration causing growth inhibition [8]: 0.01 µg/mL
IC50 (U87MG cells [9]; 0.4% pO2 (hypoxia)): 34.6 µM
IC50 (U87MG cells [9]; 21% pO2 (normoxia)): 20.5 µM
